Columns and labels:
Experiment in all cases: KiNativ kinome profiling in PANC-1 lysate
Assay type in all cases: binding
MELK = target: T1, MELK (Homo sapiens, UniProt Q14680); conditions: Lys2
T1 construct: endogenous in cells; host or cells: PANC-1
Description: (§1) To assess target engagement and selectivity, we opted to conduct a kinome screen (KiNativ) in PANC-1 cell lysates. This chemical proteomics (chemoproteomics) methodology allows for the evaluation of small-molecule binding to protein kinases in native systems such as cell lysates. KiNativ utilizes a soluble chemical probe comprising ATP linked to biotin through an acyl-phosphate bond. The probe covalently modifies conserved lysine residues found in the ATP binding site of essentially all protein kinases (Figure 2A). To profile a kinase inhibitor, cell lysates are treated with a vehicle control or inhibitor prior to addition of the desthiobiotin ATP probe. The ATP probe occupies the ATP binding site in the kinase, which enables the conserved lysines to be biotinylated. […] The cell lysates are digested with a protease (trypsin), biotinylated peptides are affinity-enriched on streptavidin beads, and the labeled peptides are analyzed by liquid chromatography–tandem MS (Figure 2B). If an inhibitor binds to a kinase, it competes with the ATP, thus resulting in a loss of that kinase-associated peptide signal, allowing for the quantitative measurement of inhibitor binding. Unlike recombinant enzyme assays, KiNativ IC50 values are a direct measure of active site binding instead of enzymatic activity.
(§2) Kinome profiling quantified the activity of 51-106 against >300 kinases in the PANC-1 cells. The results summarized in Figure 2C are the average of duplicate control and duplicate treated samples with 5 μM of 51-106 or DMSO.
(§3) KiNativ assay with 51-106.
(§4) ATP Loop: ATP binding loop
(§5) Activation Loop: Activation loop
(§6) ATP: ATP site in non-canonical kinase (e.g. lipid kinase)
(§7) Protein Kinase Domain: Other lysine within kinase domain, possibly not in ATP binding site
(§8) Other: Labeling of residue outside of the protein kinase domain, possibly not in ATP binding site
(§9) No change. NB = No Binding (≤ 0)
(§10) >100% increase in MS signal (>2 fold increase)
(§11) Data points inhibited […] & not considered significant are left uncolored
(§12) Note: This KiNativ dataset is the result of an analysis of duplicate treated samples and control samples.
(§13) The % changes in MS signals being reported are statistically significant (Student T -test score < 0.04)

CHED = target: T2, CHED (Homo sapiens, UniProt Q14004); conditions: Lys2
T2 construct: endogenous in cells; host or cells: PANC-1 cell lysate
Description: as §1, §2, §3, §4, §5, §6, §7, §8, §9, §10, §11, §12, §13

CRK7 = target: T3, CRK7 (Homo sapiens, UniProt Q9NYV4); conditions: Lys2
T3 construct: endogenous in cells; host or cells: PANC-1 cell lysate
Description: as §1, §2, §3, §4, §5, §6, §7, §8, §9, §10, §11, §12, §13

NDR2 = target: T4, NDR2 (Homo sapiens, UniProt Q9Y2H1)
T4 construct: endogenous in cells; host or cells: PANC-1 cell lysate
Description: as §1, §2, §3, §4, §5, §6, §7, §8, §9, §10, §11, §12, §13

PFTAIRE1 = target: T5, PFTAIRE1 (Homo sapiens, UniProt O94921); conditions: Lys1
T5 construct: endogenous in cells; host or cells: PANC-1 cell lysate
Description: as §1, §2, §3, §4, §5, §6, §7, §8, §9, §10, §11, §12, §13

EphB4 = target: T6, EphB4 (Homo sapiens, UniProt P54760); conditions: ATP Loop
T6 construct: endogenous in cells; host or cells: PANC-1 lysate
Description: as §1, §2, §3, §4, §5, §6, §7, §8, §9, §10, §11, §12, §13

MAP4K5 = target: T7, MAP4K5 (Homo sapiens, UniProt Q9Y4K4)
T7 construct: endogenous in cells; host or cells: PANC-1 cell lysate
Description: as §1, §2, §3, §4, §5, §6, §7, §8, §9, §10, §11, §12, §13

RSK1 domain1 = target: T8, RSK1 domain1 (Homo sapiens, UniProt Q15418); conditions: ATP Loop
T8 construct: endogenous in cells; host or cells: PANC-1 cell lysate
Description: as §1, §2, §3, §4, §5, §6, §7, §8, §9, §10, §11, §12, §13

MAP3K15, MAP3K5, MAP3K6 = conditions: 5 µM; Lys1; IAIKEIPER
Description: as §1, §2, §3, §4, §5, §6, §7, §8, §9, §10, §11, §12, §13

MARK3 = target: T9, MARK3 (Homo sapiens, UniProt P27448); conditions: Lys1
T9 construct: endogenous in cells; host or cells: PANC-1 cell lysate
Description: as §1, §2, §3, §4, §5, §6, §7, §8, §9, §10, §11, §12, §13

MAST1, MAST2 = conditions: 5 µM; Lys2; DLKPDNLLITSMGHIK
Description: as §1, §2, §3, §4, §5, §6, §7, §8, §9, §10, §11, §12, §13

BRAF, RAF1 = conditions: 5 µM; Activation Loop; IGDFGLATVKSR
Description: as §1, §2, §3, §4, §5, §6, §7, §8, §9, §10, §11, §12, §13

PHKg2 = target: T10, PHKg2 (Homo sapiens, UniProt P15735); conditions: Lys1
T10 construct: endogenous in cells; host or cells: PANC-1 cell lysate
Description: as §1, §2, §3, §4, §5, §6, §7, §8, §9, §10, §11, §12, §13

CLK1 = target: T11, CLK1 (Homo sapiens, UniProt P49759); conditions: Lys2
T11 construct: endogenous in cells; host or cells: PANC-1 cell lysate
Description: as §1, §2, §3, §4, §5, §6, §7, §8, §9, §10, §11, §12, §13

CDK4 = target: T12, CDK4 (Homo sapiens, UniProt P11802); conditions: Lys2
T12 construct: endogenous in cells; host or cells: PANC-1 cell lysate
Description: as §1, §2, §3, §4, §5, §6, §7, §8, §9, §10, §11, §12, §13

TBK1 = target: T13, TBK1 (Homo sapiens, UniProt Q9UHD2); conditions: Lys1
T13 construct: endogenous in cells; host or cells: PANC-1 cell lysate
Description: as §1, §2, §3, §4, §5, §6, §7, §8, §9, §10, §11, §12, §13

TEC = target: T14, TEC (Homo sapiens, UniProt P42680); conditions: ATP Loop
T14 construct: endogenous in cells; host or cells: PANC-1 cell lysate
Description: as §1, §2, §3, §4, §5, §6, §7, §8, §9, §10, §11, §12, §13

MAPKAPK3 = target: T15, MAPKAPK3 (Homo sapiens, UniProt Q16644)
T15 construct: endogenous in cells; host or cells: PANC-1 cell lysate
Description: as §1, §2, §3, §4, §5, §6, §7, §8, §9, §10, §11, §12, §13

MARK1, MARK2 = conditions: 5 µM; Lys1; EVAVKIIDK
Description: as §1, §2, §3, §4, §5, §6, §7, §8, §9, §10, §11, §12, §13

RON = target: T16, RON (Homo sapiens, UniProt Q04912); conditions: Lys1
T16 construct: endogenous in cells; host or cells: PANC-1 cell lysate
Description: as §1, §2, §3, §4, §5, §6, §7, §8, §9, §10, §11, §12, §13

MAP2K7 = target: T17, MAP2K7 (Homo sapiens, UniProt O14733); conditions: Lys2
T17 construct: endogenous in cells; host or cells: PANC-1 cell lysate
Description: as §1, §2, §3, §4, §5, §6, §7, §8, §9, §10, §11, §12, §13

[1] = test system: FGFR1, FMS, PDGFRb, TYRO3; conditions: 5 µM; Lys1; VAVKMLK
Description: as §1, §2, §3, §4, §5, §6, §7, §8, §9, §10, §11, §12, §13

CDK2 = target: T18, CDK2 (Homo sapiens, UniProt P24941)
T18 construct: endogenous in cells; host or cells: PANC-1 cell lysate
Description: as §1, §2, §3, §4, §5, §6, §7, §8, §9, §10, §11, §12, §13

RSK3 domain1 = target: T19, RSK3 domain1 (Homo sapiens, UniProt Q15349); conditions: Lys2
T19 construct: endogenous in cells; host or cells: PANC-1 cell lysate
Description: as §1, §2, §3, §4, §5, §6, §7, §8, §9, §10, §11, §12, §13

JAK3 domain2 = target: T20, JAK3 domain2 (Homo sapiens, UniProt P52333); conditions: Lys1
T20 construct: we opted to conduct a kinome screen (KiNativ) in PANC-1 cell lysates; endogenous in cells; host or cells: PANC-1 cell lysate
Description: as §1, §2, §3, §4, §5, §6, §7, §8, §9, §10, §11, §12, §13

PKCa, PKCg = conditions: 5 µM; Other; NLIPMDPNGLSDPYVKLK
Description: as §1, §2, §3, §4, §5, §6, §7, §8, §9, §10, §11, §12, §13

IKKa = target: T21, IKKa (Homo sapiens, UniProt O15111); conditions: Lys2
T21 construct: we opted to conduct a kinome screen (KiNativ) in PANC-1 cell lysates; endogenous in cells; host or cells: PANC-1 cell lysate
Description: as §1, §2, §3, §4, §5, §6, §7, §8, §9, §10, §11, §12, §13

T15 sequence (Q16644 whole entry): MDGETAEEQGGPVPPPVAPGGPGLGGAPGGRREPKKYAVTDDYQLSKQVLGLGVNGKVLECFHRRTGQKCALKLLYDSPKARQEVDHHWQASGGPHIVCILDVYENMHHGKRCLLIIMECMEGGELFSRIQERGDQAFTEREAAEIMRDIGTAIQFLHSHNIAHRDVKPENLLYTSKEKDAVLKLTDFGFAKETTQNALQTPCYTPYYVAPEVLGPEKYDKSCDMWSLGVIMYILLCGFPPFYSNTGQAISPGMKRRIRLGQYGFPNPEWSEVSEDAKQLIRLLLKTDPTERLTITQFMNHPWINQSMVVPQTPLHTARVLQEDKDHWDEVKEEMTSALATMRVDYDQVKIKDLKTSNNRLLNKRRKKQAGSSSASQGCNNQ
T7 sequence (Q9Y4K4 whole entry): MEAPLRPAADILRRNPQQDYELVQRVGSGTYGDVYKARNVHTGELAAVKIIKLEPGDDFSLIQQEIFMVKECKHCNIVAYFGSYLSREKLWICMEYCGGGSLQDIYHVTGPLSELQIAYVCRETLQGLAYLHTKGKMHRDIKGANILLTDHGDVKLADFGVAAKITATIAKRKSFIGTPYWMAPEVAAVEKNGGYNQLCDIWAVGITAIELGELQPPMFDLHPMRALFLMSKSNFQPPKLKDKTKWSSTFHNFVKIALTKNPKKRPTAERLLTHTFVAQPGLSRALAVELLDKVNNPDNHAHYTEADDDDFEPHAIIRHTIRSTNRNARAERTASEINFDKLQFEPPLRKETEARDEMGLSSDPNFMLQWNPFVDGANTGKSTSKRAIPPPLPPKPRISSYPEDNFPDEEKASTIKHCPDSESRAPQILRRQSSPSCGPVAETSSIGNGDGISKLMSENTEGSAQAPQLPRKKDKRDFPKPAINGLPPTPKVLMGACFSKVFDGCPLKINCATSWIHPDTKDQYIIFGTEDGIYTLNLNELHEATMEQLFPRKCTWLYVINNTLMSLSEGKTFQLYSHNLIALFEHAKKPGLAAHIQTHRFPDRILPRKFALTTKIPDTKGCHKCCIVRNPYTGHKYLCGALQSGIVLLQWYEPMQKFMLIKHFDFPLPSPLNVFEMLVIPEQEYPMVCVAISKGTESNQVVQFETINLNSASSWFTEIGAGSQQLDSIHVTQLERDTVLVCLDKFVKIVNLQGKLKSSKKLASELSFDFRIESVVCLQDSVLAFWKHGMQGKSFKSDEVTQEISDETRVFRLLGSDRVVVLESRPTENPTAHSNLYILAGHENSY
T4 sequence (Q9Y2H1 whole entry): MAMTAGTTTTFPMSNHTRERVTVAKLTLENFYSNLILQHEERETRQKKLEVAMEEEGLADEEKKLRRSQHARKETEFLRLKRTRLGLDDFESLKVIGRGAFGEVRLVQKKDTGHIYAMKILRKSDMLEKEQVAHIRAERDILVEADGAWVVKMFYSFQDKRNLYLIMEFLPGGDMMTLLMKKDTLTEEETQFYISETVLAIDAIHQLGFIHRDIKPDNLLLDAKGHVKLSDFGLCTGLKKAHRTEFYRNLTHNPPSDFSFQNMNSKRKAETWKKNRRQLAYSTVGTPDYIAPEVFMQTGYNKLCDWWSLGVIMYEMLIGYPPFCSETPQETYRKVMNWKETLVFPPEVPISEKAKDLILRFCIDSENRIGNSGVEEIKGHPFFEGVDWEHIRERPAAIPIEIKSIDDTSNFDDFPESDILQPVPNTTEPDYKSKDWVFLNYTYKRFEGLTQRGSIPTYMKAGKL
T2 sequence (Q14004 whole entry): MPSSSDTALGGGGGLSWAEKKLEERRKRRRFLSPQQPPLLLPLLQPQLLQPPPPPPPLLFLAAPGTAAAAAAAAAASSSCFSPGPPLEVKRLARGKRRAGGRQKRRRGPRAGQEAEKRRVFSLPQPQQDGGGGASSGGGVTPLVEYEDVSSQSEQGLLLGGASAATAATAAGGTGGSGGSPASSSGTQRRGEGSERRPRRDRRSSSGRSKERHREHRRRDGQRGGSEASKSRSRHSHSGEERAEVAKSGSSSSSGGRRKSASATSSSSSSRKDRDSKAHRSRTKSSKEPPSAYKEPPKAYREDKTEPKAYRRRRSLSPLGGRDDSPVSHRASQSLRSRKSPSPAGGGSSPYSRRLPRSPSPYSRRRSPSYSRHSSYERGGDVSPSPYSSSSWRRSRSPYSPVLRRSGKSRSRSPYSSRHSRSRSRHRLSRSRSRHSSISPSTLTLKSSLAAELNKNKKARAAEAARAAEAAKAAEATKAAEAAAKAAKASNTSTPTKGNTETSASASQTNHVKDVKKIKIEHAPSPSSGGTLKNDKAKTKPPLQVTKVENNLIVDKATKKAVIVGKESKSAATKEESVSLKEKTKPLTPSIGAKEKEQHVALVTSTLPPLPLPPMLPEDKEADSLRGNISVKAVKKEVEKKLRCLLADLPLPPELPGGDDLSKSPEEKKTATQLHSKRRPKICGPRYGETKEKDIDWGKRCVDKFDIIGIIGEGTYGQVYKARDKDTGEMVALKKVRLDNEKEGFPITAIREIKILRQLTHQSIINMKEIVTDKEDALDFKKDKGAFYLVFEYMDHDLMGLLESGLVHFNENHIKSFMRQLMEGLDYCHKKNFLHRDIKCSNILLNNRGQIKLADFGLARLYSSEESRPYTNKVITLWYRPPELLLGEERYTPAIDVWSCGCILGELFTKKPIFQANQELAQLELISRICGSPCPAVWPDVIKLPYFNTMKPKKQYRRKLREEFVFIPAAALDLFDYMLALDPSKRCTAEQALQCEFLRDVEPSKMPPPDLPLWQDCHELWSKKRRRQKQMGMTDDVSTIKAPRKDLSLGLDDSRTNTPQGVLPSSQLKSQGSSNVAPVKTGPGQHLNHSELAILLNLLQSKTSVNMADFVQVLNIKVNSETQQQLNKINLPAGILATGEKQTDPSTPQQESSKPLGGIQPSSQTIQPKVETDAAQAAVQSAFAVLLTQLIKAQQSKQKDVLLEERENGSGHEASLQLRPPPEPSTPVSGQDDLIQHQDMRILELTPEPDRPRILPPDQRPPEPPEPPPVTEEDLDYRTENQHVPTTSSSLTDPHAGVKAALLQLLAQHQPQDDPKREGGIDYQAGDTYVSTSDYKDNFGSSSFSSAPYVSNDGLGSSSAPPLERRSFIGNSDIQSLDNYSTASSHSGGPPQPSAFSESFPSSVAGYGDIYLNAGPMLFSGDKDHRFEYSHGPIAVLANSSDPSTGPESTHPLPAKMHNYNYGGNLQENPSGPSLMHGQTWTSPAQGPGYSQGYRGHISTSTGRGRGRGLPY
T13 sequence (Q9UHD2 whole entry): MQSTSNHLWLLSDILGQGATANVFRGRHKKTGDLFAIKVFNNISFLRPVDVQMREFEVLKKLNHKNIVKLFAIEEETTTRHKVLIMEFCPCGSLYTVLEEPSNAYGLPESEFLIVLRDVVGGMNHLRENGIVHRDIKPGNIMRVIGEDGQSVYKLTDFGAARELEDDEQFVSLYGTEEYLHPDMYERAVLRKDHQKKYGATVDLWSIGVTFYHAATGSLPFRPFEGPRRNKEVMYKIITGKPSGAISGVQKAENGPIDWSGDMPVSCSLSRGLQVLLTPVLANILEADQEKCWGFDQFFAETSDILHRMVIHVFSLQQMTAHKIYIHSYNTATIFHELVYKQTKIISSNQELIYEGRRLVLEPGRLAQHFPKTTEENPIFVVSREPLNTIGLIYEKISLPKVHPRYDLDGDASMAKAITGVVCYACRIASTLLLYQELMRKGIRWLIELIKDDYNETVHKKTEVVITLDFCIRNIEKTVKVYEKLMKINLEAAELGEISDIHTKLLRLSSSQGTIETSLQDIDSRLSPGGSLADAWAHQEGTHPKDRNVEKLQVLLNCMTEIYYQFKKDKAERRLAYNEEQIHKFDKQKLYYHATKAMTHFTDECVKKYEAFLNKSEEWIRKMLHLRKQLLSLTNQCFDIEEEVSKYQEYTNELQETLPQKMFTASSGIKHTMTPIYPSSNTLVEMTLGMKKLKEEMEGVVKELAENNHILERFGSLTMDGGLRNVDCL
T11 sequence (P49759 whole entry): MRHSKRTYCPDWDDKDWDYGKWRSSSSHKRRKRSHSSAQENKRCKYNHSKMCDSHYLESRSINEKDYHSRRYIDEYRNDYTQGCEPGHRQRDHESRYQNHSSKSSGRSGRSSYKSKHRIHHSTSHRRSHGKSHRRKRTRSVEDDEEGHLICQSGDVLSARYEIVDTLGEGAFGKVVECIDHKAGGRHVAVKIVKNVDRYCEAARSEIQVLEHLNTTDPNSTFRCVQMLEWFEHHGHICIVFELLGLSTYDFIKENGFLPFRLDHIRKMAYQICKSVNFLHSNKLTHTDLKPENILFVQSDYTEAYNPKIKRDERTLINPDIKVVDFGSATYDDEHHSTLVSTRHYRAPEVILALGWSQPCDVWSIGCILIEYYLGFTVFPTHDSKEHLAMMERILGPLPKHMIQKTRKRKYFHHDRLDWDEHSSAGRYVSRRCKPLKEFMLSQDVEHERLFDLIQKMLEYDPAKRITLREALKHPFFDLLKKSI
T5 sequence (O94921 whole entry): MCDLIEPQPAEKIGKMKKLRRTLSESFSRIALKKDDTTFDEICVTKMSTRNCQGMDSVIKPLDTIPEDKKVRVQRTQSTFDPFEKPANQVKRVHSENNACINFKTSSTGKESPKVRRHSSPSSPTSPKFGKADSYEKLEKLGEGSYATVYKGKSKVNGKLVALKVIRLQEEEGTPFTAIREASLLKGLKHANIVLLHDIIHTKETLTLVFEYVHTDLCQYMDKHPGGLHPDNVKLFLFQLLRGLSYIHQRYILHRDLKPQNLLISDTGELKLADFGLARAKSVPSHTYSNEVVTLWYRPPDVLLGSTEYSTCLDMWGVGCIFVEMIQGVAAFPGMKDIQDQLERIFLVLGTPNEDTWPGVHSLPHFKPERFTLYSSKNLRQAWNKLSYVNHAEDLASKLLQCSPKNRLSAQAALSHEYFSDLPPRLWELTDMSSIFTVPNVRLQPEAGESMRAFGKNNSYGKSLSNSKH

## Cn1cc(-c2cnc3ccc(NC(=O)Nc4ccc(F)c(C(F)(F)F)c4)cc3n2)cn1 [51-106, 1-(4-Fluoro-3-(trifluoromethyl)phenyl)-3-(3-(1-methyl-1H-pyrazol-4-yl)quinoxalin-6-yl)urea]
MELK
  inhibition at 5 µM: ≤ 0%
CHED
  inhibition at 5 µM: ≤ 0%
CRK7
  inhibition at 5 µM: 14.3%
NDR2; Lys1, DTGHIYAMKILR
  inhibition at 5 µM: ≤ 0%
NDR2; Lys2, DIKPDNLLLDAK
  inhibition at 5 µM: 7.6%
PFTAIRE1
  inhibition at 5 µM: 7.7%
EphB4
  inhibition at 5 µM: 1.6%
MAP4K5; Lys1, NVHTGELAAVKIIK
  inhibition at 5 µM: 6%
MAP4K5; Lys2, DIKGANILLTDHGDVK
  inhibition at 5 µM: ≤ 0%
RSK1 domain1
  inhibition at 5 µM: ≤ 0%
MAP3K15, MAP3K5, MAP3K6
  % Inhibition: NB (NB = No Binding (≤ 0))
MARK3
  inhibition at 5 µM: ≤ 0%
MAST1, MAST2
  % Inhibition: NB (NB = No Binding (≤ 0))
BRAF, RAF1
  % Inhibition: 12.7%
PHKg2
  inhibition at 5 µM: ≤ 0%
CLK1
  inhibition at 5 µM: 0.5%
CDK4
  inhibition at 5 µM: 3.2%
TBK1
  inhibition at 5 µM: 5.7%
TEC
  inhibition at 5 µM: 20.1%
MAPKAPK3; 5 µM, Lys1, CALKLLYDSPK
  % Inhibition: NB (NB = No Binding (≤ 0))
MAPKAPK3; ATP Loop, […]
  inhibition at 5 µM: ≤ 0%
MARK1, MARK2
  % Inhibition: NB (NB = No Binding (≤ 0))
RON
  inhibition at 5 µM: ≤ 0%
MAP2K7
  inhibition at 5 µM: ≤ 0%
[1]
  % Inhibition: NB (NB = No Binding (≤ 0))
CDK2; 5 µM, Lys1, LTGEVVALKK
  % Inhibition: 12%
CDK2; Lys1, LTGEVVALKK
  inhibition at 5 µM: 12.3%
CDK2; Lys2, DLKPQNLLINTEGAIK
  inhibition at 5 µM: ≤ 0%
RSK3 domain1
  inhibition at 5 µM: ≤ 0%
JAK3 domain2
  inhibition at 5 µM: 25.2%
PKCa, PKCg
  % Inhibition: NB (NB = No Binding (≤ 0))
IKKa
  inhibition at 5 µM: ≤ 0%

— article PMC12073402, “A Selective MAP3K1 Inhibitor Facilitates Discovery of NPM1 as a Member of the Network” (Molecules, 2025)
